Patent US20240294531A1, “COVALENT HETEROCYCLES AND USES THEREOF” (Kumquat Biosciences Inc., priority 2022, published 2024)
pIC50: −log10 of the molar value.

Experiments:
[1] = biological target: BTK wildtype protein (Homo sapiens (Human), UniProt Q06187); experiment: BTK wildtype HTRF displacement assay; type: binding; settings: 1-hour incubation; read-out: BTK (wt) IC50
Procedure, shortened: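 Tracer-displacement HTRF format: compound and tracer 239 compete at the BTK active site, detected via anti-GST-Tb on GST-tagged full-length enzyme. One-hour room-temperature incubation; compounds dosed at six four-fold steps down from 5 μM. Percent inhibition versus DMSO gives IC50 by constrained four-parameter logistic fit.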

[2] = biological target: BTK C481S protein (Homo sapiens (Human), UniProt Q06187, C481S); experiment: BTK C481S HTRF displacement assay; type: binding; settings: 1-hour incubation
Procedure, shortened: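 Tracer displacement read by HTRF after 1 hour at room temperature: GST-BTK C481S 2-659, 50 nM tracer 239 (Kd 54 nM), anti-GST antibody, compound in six four-fold doses from 5 μM. Percent inhibition versus DMSO fitted (bottom 0, top 100) for IC50, converted to KI via Cheng-Prusoff.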

Sequence of BTK C481S protein (Q06187 2-659 C481S): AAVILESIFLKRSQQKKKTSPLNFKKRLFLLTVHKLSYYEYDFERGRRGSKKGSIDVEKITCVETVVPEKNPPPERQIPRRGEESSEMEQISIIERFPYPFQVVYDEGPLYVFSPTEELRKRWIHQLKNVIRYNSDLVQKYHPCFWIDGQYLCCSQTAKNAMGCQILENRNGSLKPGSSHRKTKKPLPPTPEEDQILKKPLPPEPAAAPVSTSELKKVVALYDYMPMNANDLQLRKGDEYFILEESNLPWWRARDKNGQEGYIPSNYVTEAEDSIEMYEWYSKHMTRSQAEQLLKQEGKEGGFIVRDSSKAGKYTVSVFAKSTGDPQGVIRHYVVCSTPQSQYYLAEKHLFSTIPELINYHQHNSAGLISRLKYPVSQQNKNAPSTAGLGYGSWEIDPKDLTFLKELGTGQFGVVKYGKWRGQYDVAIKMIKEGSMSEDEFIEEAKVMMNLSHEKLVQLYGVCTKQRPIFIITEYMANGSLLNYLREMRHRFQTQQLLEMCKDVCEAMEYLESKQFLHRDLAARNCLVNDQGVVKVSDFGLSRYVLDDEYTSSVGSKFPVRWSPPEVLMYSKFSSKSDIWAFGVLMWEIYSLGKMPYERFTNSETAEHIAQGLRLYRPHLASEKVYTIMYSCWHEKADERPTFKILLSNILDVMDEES
Sequence of BTK wildtype protein (Q06187 2-659): as the sequence (Q06187 2-659 C481S) above, with S480C counted along it

Compound: COc1ccc(F)cc1C(=O)NCc1ccc(-c2nn(C3(CCN(C)C(=O)n4cncn4)CC3)c3ncnc(N)c23)cc1 [Compound 225, N-(2-(1-(4-amino-3-(4-((5-fluoro-2-methoxybenzamido)methyl)phenyl)-1H-pyrazolo[3,4-d]pyrimidin-1-yl)cyclopropyl)ethyl)-N-methyl-1H-1,2,4-triazole-1-carboxamide]
- pIC50 [1]: ≥ 6.00
- pIC50 [2]: < 6.00

Compound: COc1ccc(F)cc1C(=O)NCc1ccc(-c2nn(C(C)CN(C)C(=O)n3cncn3)c3ncnc(N)c23)cc1 (stereo not drawn) [Compound 226, N-(2-(4-amino-3-(4-((5-fluoro-2-methoxybenzamido)methyl)phenyl)-1H-pyrazolo[3,4-d]pyrimidin-1-yl)propyl)-N-methyl-1H-1,2,4-triazole-1-carboxamide]
- pIC50 [1]: ≥ 6.00
- pIC50 [2]: ≥ 6.00

Compound: NC(=O)c1c(-c2ccc(Oc3ccccc3)cc2)nn2c1NCC1CN(C(=O)n3cncn3)CC12 (stereo not drawn) [Compound 228, 2-(4-phenoxyphenyl)-7-(1H-1,2,4-triazole-1-carbonyl)-5,5a,6,7,8,8a-hexahydro-4H-pyrazolo[1,5-a] pyrrolo[3,4-e]pyrimidine-3-carboxamide]
- pIC50 [1]: < 6.00
- pIC50 [2]: < 6.00

Compound: COc1ccc(F)cc1C(=O)NCc1ccc(-c2nn(CC3CCCCC3N(C)C(=O)n3cncn3)c(N)c2C(N)=O)cc1 (stereo not drawn) [Compound 229, N-(2-((5-amino-4-carbamoyl-3-(4-((5-fluoro-2-methoxybenzamido)methyl)phenyl)-1H-pyrazol-1-yl)methyl)cyclohexyl)-N-methyl-1H-1,2,4-triazole-1-carboxamide]
- pIC50 [1]: ≥ 6.00
- pIC50 [2]: ≥ 6.00

Compound: COc1ccc(F)cc1C(=O)NCc1ccc(-c2nn(C(C)CN(C(=O)n3cncn3)C3CC3)c3ncnc(N)c23)cc1 (stereo not drawn) [Compound 230, N-(2-(4-amino-3-(4-((5-fluoro-2-methoxybenzamido)methyl)phenyl)-1H-pyrazolo[3,4-d]pyrimidin-1-yl)propyl)-N-cyclopropyl-1H-1,2,4-triazole-1-carboxamide]
- pIC50 [1]: < 6.00
- pIC50 [2]: ≥ 6.00

Compound: COc1ccc(F)cc1C(=O)NCc1ccc(-c2nn(C(CN(C(=O)n3cncn3)C3CC3)C3CC3)c3ncnc(N)c23)cc1 (stereo not drawn) [Compound 231, N-(2-(4-amino-3-(4-((5-fluoro-2-methoxybenzamido)methyl)phenyl)-1H-pyrazolo[3,4-d]pyrimidin-1-yl)-2-cyclopropyl-ethyl)-N-cyclopropyl-1H-1,2,4-triazole-1-carboxamide]
- pIC50 [1]: < 6.00
- pIC50 [2]: < 6.00

Compound: COc1ccc(F)cc1C(=O)NCc1ccc(-c2nn([C@H]3CCCC[C@H](N(C)C(=O)n4cncn4)C3)c(N)c2C(N)=O)cc1 [Compound 232, N-((1S,3S)-3-(5-amino-4-carbamoyl-3-(4-((5-fluoro-2-methoxybenzamido)methyl)phenyl)-1H-pyrazol-1-yl)cycloheptyl)-N-methyl-1H-1,2,4-triazole-1-carboxamide]
- pIC50 [1]: ≥ 6.00
- pIC50 [2]: ≥ 6.00

Compound: CN(C(=O)n1cncn1)C1CCC2CNc3c(C(N)=O)c(-c4ccc(Oc5ccccc5)cc4)nn3C2C1 (stereo not drawn) [Compound 234, 8-(N-methyl-1H-1,2,4-triazole-1-carboxamido)-2-(4-phenoxyphenyl)-4,5,5a,6,7,8,9,9a-octahydro-pyrazolo[1,5-a]quinazoline-3-carboxamide]
- pIC50 [1]: < 6.00
- pIC50 [2]: < 6.00

Compound: CN(C(=O)n1cncn1)C1CCCC1C1CCNc2c(C(N)=O)c(-c3ccc(Oc4ccccc4)cc3)nn21 (stereo not drawn) [Compound 235, 7-(2-(N-methyl-1H-1,2,4-triazole-1-carboxamido)cyclopentyl)-2-(4-phenoxyphenyl)-4,5,6,7-tetrahydropyrazolo[1,5-a] pyrimidine-3-carboxamide]
- pIC50 [1]: < 6.00
- pIC50 [2]: < 6.00

Compound: COc1ccc(F)cc1C(=O)NCc1ccc(-c2nn(C(Cc3ccccc3)CN(C)C(=O)n3cncn3)c3ncnc(N)c23)cc1 (stereo not drawn) [Compound 237, N-(2-(4-amino-3-(4-((5-fluoro-2-methoxybenzamido)methyl)phenyl)-1H-pyrazolo[3,4-d]pyrimidin-1-yl)-3-phenylpropyl)-N-methyl-1H-1,2,4-triazole-1-carboxamide]
- pIC50 [1]: < 6.00
- pIC50 [2]: < 6.00

Compound: CNc1c(C(N)=O)c(-c2ccc(Oc3ccccc3)cc2)nn1C[C@@H]1CCCCN1C(=O)n1cncn1 [Compound 238, (S)-1-((1-(1H-1,2,4-triazole-1-carbonyl)piperidin-2-yl)methyl)-5-(methylamino)-3-(4-phenoxyphenyl)-1H-pyrazole-4-carboxamide]
- pIC50 [1]: ≥ 6.00
- pIC50 [2]: < 6.00

Compound: CN(C(=O)n1cnc(Cl)n1)C1CCCC(n2nc(-c3ccc(Oc4ccccc4)cc3)c3c(N)ncnc32)C1 (stereo not drawn) [Compound 239, N-(3-(4-amino-3-(4-phenoxyphenyl)-1H-pyrazolo[3,4-d]pyrimidin-1-yl)cyclohexyl)-3-chloro-N-methyl-1H-1,2,4-triazole-1-carboxamide]
- pIC50 [1]: ≥ 6.00
- pIC50 [2]: ≥ 6.00

Compound: NC(=O)c1c(-c2ccc(Oc3ccccc3)cc2)nn2c1NCCC2CN(C(=O)n1cncn1)C1CC1 (stereo not drawn) [Compound 240, 7-((N-cyclopropyl-1H-1,2,4-triazole-1-carboxamido)methyl)-2-(4-phenoxyphenyl)-4,5,6,7-tetrahydro-pyrazolo[1,5-a]pyrimidine-3-carboxamide]
- pIC50 [1]: < 6.00
- pIC50 [2]: < 6.00

Compound: COc1ccc(F)cc1C(=O)NCc1ccc(-c2nn(C[C@@H]3C[C@H](O)CN3C(=O)n3cncn3)c3ncnc(N)c23)cc1 [Compound 241, N-(4-(4-amino-1-(((2S,4S)-4-hydroxy-1-(1H-1,2,4-triazole-1-carbonyl)pyrrolidin-2-yl)methyl)-1H-pyrazolo[3,4-d]pyrimidin-3-yl)benzyl)-5-fluoro-2-methoxybenzamide]
- pIC50 [1]: ≥ 6.00
- pIC50 [2]: ≥ 6.00

Compound: CC(C)[C@H](C1CCNc2c(C(N)=O)c(-c3ccc(Oc4ccccc4)cc3)nn21)N(C)C(=O)n1cncn1 (stereo partly drawn) [Compound 242, 7-((R)-2-methyl-1-(N-methyl-1H-1,2,4-triazole-1-carboxamido)propyl)-2-(4-phenoxyphenyl)-4,5,6,7-tetrahydropyrazolo[1,5-a] pyrimidine-3-carboxamide]
- pIC50 [1]: < 6.00
- pIC50 [2]: < 6.00

Compound: COc1ccc(F)cc1C(=O)NCc1ccc(-c2nn(C(CN(C)C(=O)n3cncn3)c3ccccc3)c3ncnc(N)c23)cc1 (stereo not drawn) [Compound 243, N-(2-(4-amino-3-(4-((5-fluoro-2-methoxybenzamido)methyl)phenyl)-1H-pyrazolo[3,4-d]pyrimidin-1-yl)-2-phenylethyl)-N-methl-1H-1,2,4-triazole-1-carboxamide]
- pIC50 [1]: < 6.00
- pIC50 [2]: < 6.00

Compound: CN(CCC1CCNc2c(C(N)=O)c(-c3ccc(Oc4ccccc4)cc3)nn21)C(=O)n1cncn1 (stereo not drawn) [Compound 244, 7-(2-(N-methyl-1H-1,2,4-triazole-1-carboxamido)ethyl)-2-(4-phenoxyphenyl)-4,5,6,7-tetrahydropyrazolo[1,5-a] pyrimidine-3-carboxamide]
- pIC50 [1]: ≥ 6.00
- pIC50 [2]: ≥ 6.00

Compound: COc1ccc(F)cc1C(=O)NCc1ccc(-c2nn(CC3CCN(C(=O)n4cncn4)C3)c3ncnc(N)c23)cc1 (stereo not drawn) [Compound 245, N-(4-(1-((1-(1H-1,2,4-triazole-1-carbonyl)pyrrolidin-3-yl)methyl)-4-amino-1H-pyrazolo[3,4-d]pyrimidin-3-yl)benzyl)-5-fluoro-2-methoxybenzamide]
- pIC50 [1]: ≥ 6.00
- pIC50 [2]: ≥ 6.00

Compound: COc1ccc(F)cc1C(=O)NCc1ccc(-c2nn(CC3CCC(O)CN3C(=O)n3cncn3)c3ncnc(N)c23)cc1 (stereo not drawn) [Compound 246, N-(4-(4-amino-1-((5-hydroxy-1-(1H-1,2,4-triazole-1-carbonyl)piperidin-2-yl)methyl)-1H-pyrazolo[3,4-d]pyrimidin-3-yl)benzyl)-5-fluoro-2-methoxybenzamide]
- pIC50 [1]: ≥ 6.00
- pIC50 [2]: ≥ 6.00

Compound: CN(C(=O)n1cncn1)[C@@H]1CCC[C@@H](n2nc(-c3ccc(Oc4ccccc4)cc3)c(C(N)=O)c2N)C1 [Compound 247, N-((1R,3R)-3-(5-amino-4-carbamoyl-3-(4-phenoxyphenyl)-1H-pyrazol-1-yl)cyclohexyl)-N-methyl-1H-1,2,4-triazole-1-carboxamide]
- pIC50 [1]: ≥ 6.00
- pIC50 [2]: ≥ 6.00

Compound: COc1ccc(F)cc1C(=O)NCc1ccc(-c2nn(C[C@@H]3CCCN3C(=O)n3cncn3)c3ncnc(N)c23)cc1 [Compound 251, (S)-N-(4-(1-((1-(1H-1,2,4-triazole-1-carbonyl)pyrrolidin-2-yl)methyl)-4-amino-1H-pyrazolo[3,4-d]pyrimidin-3-yl)benzyl)-5-fluoro-2-methoxybenzamide]
- pIC50 [1]: ≥ 6.00
- pIC50 [2]: ≥ 6.00

Compound: CN(C(=O)n1cncn1)[C@H]1CCCC[C@H](n2nc(-c3ccc(Oc4ccccc4)cc3)c(C(N)=O)c2N)C1 [Compound 252, N-((1S,3S)-3-(5-amino-4-carbamoyl-3-(4-phenoxyphenyl)-1H-pyrazol-1-yl)cycloheptyl)-N-methyl-1H-1,2,4-triazole-1-carboxamide]
- pIC50 [1]: ≥ 6.00
- pIC50 [2]: ≥ 6.00

Compound: COc1ccc(F)cc1C(=O)NCc1ccc(-c2nn(C(CC(F)F)CN(C)C(=O)n3cncn3)c3ncnc(N)c23)cc1 (stereo not drawn) [Compound 257, N-(2-(4-amino-3-(4-((5-fluoro-2-methoxybenzamido)methyl)phenyl)-1H-pyrazolo[3,4-d]pyrimidin-1-yl)-4,4-difluorobutyl)-N-methyl-1H-1,2,4-triazole-1-carboxamide]
- pIC50 [1]: < 6.00
- pIC50 [2]: < 6.00

Compound: COc1ccc(C)cc1C(=O)NCc1ccc(-c2nn(C3CCC(N(C)C(=O)n4cncn4)CC3)c3ncnc(N)c23)cc1 (stereo not drawn) [Compound 258, N-(4-(4-amino-3-(4-((2-methoxy-5-methylbenzamido)methyl)phenyl)-1H-pyrazolo[3,4-d]pyrimidin-1-yl)cyclohexyl)-N-methyl-1H-1,2,4-triazole-1-carboxamide]
- pIC50 [1]: ≥ 6.00
- pIC50 [2]: ≥ 6.00
